Tests used:
[1] = tested on: protein glycosylation in BCECs; experiment: N-glycan, monosaccharide, sialic acid and O-glycan analysis of BCECs; assay type: cell-based, bovine
Method: As soon as BCECs reached about 80% confluency, they were washed twice with phosphate buffered saline (PBS, Sigma) and harvested by scraping. The cells were pelleted by centrifugation at 300 g for 3 mins and washed once with cold PBS. Cells were homogenized and total protein was measured. All subsequent analysis was based on known protein amount.
N-linked glycans were removed from glycoprotein samples using PNGase-F kit (New England BioLabs, P0705S). Briefly, 300 μg of protein sample was reconstituted in 180 μl UltraPure water. 20 μl of 10× denaturing buffer was added and boiled using 100° C. water bath for 14 mins. Samples were cooled down to room temperature and centrifuged at 2700 g for 1 min. Subsequently, 50 μl 10×NP-40 was added and samples were kept at room temperature for 30 mins with vortexing at 5 min interval, followed by adding 25 μL of 10×reaction buffer and mixing thoroughly. 5 μl PNGaseF (2500 U) was then added to the samples and mixed gently. Samples were incubated at 37° C. for 16 hrs. Released N-glycans were purified using solid phase extraction method. Briefly, N-glycans were purified by passing the reaction mixture sequentially over pre-conditioned Sep-Pak C18 1 cc cartridge (Waters) and HyperSep PGC ([…]) cartridge (25 mg, 1 ml Thermo Scientific). The cartridge was washed with 4 ml of water and the PGC alone was washed with additional 1 ml of water. N-glycans bound to PGC were eluted using 30% acetonitrile containing 0.1% TFA in water. Finally, purified N-glycans were lyophilized and labeled with 2-AB. Briefly, samples were dissolved in 10 μl solution of 0.44 M 2-AB (2-Amino benzamide) in 35% acetic acid in DMSO containing 1M sodium cyanoborohydride. The samples were incubated at 65° C. for 2.5 hrs. The 2-AB labeled glycans were purified using GlycoClean S cartridge (GLYKO) following their glycan clean-up protocol. Excess reagent was removed from the samples using Glycoclean S-cartridge (Prozyme) and labelled glycans were dried using SpeedVac and stored at −20° C. Profiling of 2-AB labeled glycans was obtained using Dionex CarboPac PA1 (4×250 mm) anion exchange column along with a guard column (4×50 mm) at flow rate of 1 ml/min. Glycans were separated in 100 mM sodium hydroxide with a sodium acetate gradient of 0-250 mM in 0-75 minutes. The data was collected using the Dionex ICS-3000 HPLC system with Ultimate 3000 fluorescence detector (Dionex) set at λex 330 nm at tem 420 nm with sensitivity 7. The data was processed using Chromeleon software (Thermo Scientific).
Monosaccharide composition analysis was done using HPAEC-PAD (Thermo-Dionex ICS3000) and nmole amount of each monosaccharide present in 25 μg of protein was calculated. Samples were hydrolyzed using 2 N trifluoroacetic acid (TFA) at 100° C. for 4 hrs. Followed by removal of acid using dry nitrogen flush. To ensure complete removal of acid, samples were co-evaporated twice with 100 μl of 50% isopropyl alcohol (IPA). Finally, the samples were dissolved in Milli-Q water and injected on HPAEC-PAD. Monosaccharide profile was done using Dionex CarboPac™ PA1 column (250 mm×4 mm; with 50 mm×4 mm guard column). […] All neutral and amino sugars were identified and quantified by comparing with authentic monosaccharide standard mixture consisting of L-fucose, D-galactosamine, D-glucosamine, D-galactose, D-glucose and D-mannose.
Mild acid hydrolysis was used to release sialic acid. […] Known amount of standard Neu5Ac was used to quantify amount of sialic acid in samples. […]

AML12 liver cells = experiment: AML12 proliferation assay; assay type: cell-based, mouse
Method: Proliferation assays with fibroblasts were done in low-glucose DMEM containing 1% FBS, with or without 10 ng/ml bFGF, or 100 ng/ml human EGF and the assay was ended at day 3. ARPE-19 cells were gently lifted with 0.025% trypsin and plated in RtEGM media (Clonetics) containing 2% FBS, L-glutamine, human bFGF and GA-1000. Once cells were attached to plates, serum-free RtEGM media was used to maintain the cultures. For proliferation assays, 1500 human RPE cells were plated into 96-well plates in low-glucose DMEM containing 1% FBS. A673, U87MG, Calu6 and AML12 cells were grown until confluent and were then harvested and re-suspended in appropriate assay media. For proliferation assays, cells were plated at the density of 1000-2000 cells/well in low-glucose DMEM containing 5% FBS or otherwise stated. Bovine pituitary cells (pituitary folliculostellate cells) were isolated as previously described. For proliferation assays with human epidermal keratinocytes, human DMVECs and human dermal fibroblast cells, 1000 cells/well were plated in low-glucose DMEM containing 1% FBS with or without various growth factors. The assay was ended at day 3 for bovine pituitary cells and at day 4 for all the other cell types. […] Four days later, tumor cell growth was measured by the MTS assay (Promega, Madison, WI), a colorimetric assay that measures metabolic activity of viable cells. […]

## N[C@H](C=O)[C@@H](O)[C@H](O)[C@H](O)CO [ManN, 2-Amino-2-deoxy-D-mannose]
[1]
  fucose (8 hours), mannose (12 hours), galactose (24 hours) and Neu5Ac (8 and 24 hours) content vs untreated control: significant decrease
  incorporation of ManN in N-glycans: No incorporation of ManN was detected
[1]; 40 uM ManN
  Man-5 and Man-7 content: significant early phase accumulation
  Man-6, Man-8 and Man-9 in total oligomannose N-glycan content vs untreated control: significant time-dependent reduction
[1]; 40 uM ManN, MALDI-Tof
  O-glycosylation: overall decrease in O-glycosylation
AML12 liver cells; 5 mM level of ManN
  cellular toxicity, sensitivity among cell types: most sensitive
AML12 liver cells; alone or in combination with growth factors
  proliferation of AML12: no increases in proliferation

From patent US20230390315A1, “COMPOSITIONS AND METHODS FOR TREATING ISCHEMIC CONDITIONS” (The Regents of the University of California, priority 2020, published 2023)
